Structures can show the parent of a compound that is named as a salt.
System: NCI-H292 lung cancer cells
Experiment: FDA drug screening, complete media vs cholesterol-free media without statin (TABLE 1)
Type: cell-based, human
Conditions: Complete minus Cholesterol-free; >0 enhanced anti-cancer activity, about 0 neutral, <0 antagonist

SMILES	Difference
O=C(COc1ccc(Cl)cc1)N1CCN(Cc2ccc3c(c2)OCO3)CC1 [Fipexide]	−0.02
Cc1c(-c2ccccc2)oc2c(C(=O)OCCN3CCCCC3)cccc2c1=O [Flavoxate (hydrochloride)]	0.01
CCC(=O)c1c(O)cc(O)cc1O [Flopropione]	−0.07
O=c1[nH]c(=O)n([C@H]2C[C@H](O)[C@@H](CO)O2)cc1F [Floxuridine]	−0.01
Cc1onc(-c2c(F)cccc2Cl)c1C(=O)N[C@@H]1C(=O)N2[C@@H]1SC(C)(C)[C@@H]2C(=O)O [Flucloxacillin sodium]	−0.29
CC(=O)OCC(=O)[C@@]1(O)CC[C@H]2[C@@H]3CCC4=CC(=O)CC[C@]4(C)[C@@]3(F)[C@@H](O)C[C@@]21C [Fludrocortisone acetate]	−0.30

Same assay, conditions: NCI-H292 cells, cholesterol-free media without statin

SMILES	Cholesterol-free
Cc1onc(-c2c(F)cccc2Cl)c1C(=O)N[C@@H]1C(=O)N2[C@@H]1SC(C)(C)[C@@H]2C(=O)O [Flucloxacillin sodium]	1.264
CC(=O)OCC(=O)[C@@]1(O)CC[C@H]2[C@@H]3CCC4=CC(=O)CC[C@]4(C)[C@@]3(F)[C@@H](O)C[C@@]21C [Fludrocortisone acetate]	0.7353

Same assay, conditions: NCI-H292 cells, cholesterol-free media without statin, FDA drug library screen

SMILES	Cholesterol-free
O=C(COc1ccc(Cl)cc1)N1CCN(Cc2ccc3c(c2)OCO3)CC1 [Fipexide]	1.201
Cc1c(-c2ccccc2)oc2c(C(=O)OCCN3CCCCC3)cccc2c1=O [Flavoxate (hydrochloride)]	0.984
CCC(=O)c1c(O)cc(O)cc1O [Flopropione]	1.019
O=c1[nH]c(=O)n([C@H]2C[C@H](O)[C@@H](CO)O2)cc1F [Floxuridine]	0.09159

Same assay, conditions: NCI-H292 cells, complete media

SMILES	Complete
Cc1onc(-c2c(F)cccc2Cl)c1C(=O)N[C@@H]1C(=O)N2[C@@H]1SC(C)(C)[C@@H]2C(=O)O [Flucloxacillin sodium]	0.9693
CC(=O)OCC(=O)[C@@]1(O)CC[C@H]2[C@@H]3CCC4=CC(=O)CC[C@]4(C)[C@@]3(F)[C@@H](O)C[C@@]21C [Fludrocortisone acetate]	0.437

Same assay, conditions: NCI-H292 cells, complete media, FDA drug library screen

SMILES	Complete
O=C(COc1ccc(Cl)cc1)N1CCN(Cc2ccc3c(c2)OCO3)CC1 [Fipexide]	1.177
Cc1c(-c2ccccc2)oc2c(C(=O)OCCN3CCCCC3)cccc2c1=O [Flavoxate (hydrochloride)]	0.9957
CCC(=O)c1c(O)cc(O)cc1O [Flopropione]	0.9515
O=c1[nH]c(=O)n([C@H]2C[C@H](O)[C@@H](CO)O2)cc1F [Floxuridine]	0.08047

System: NCI-H292 lung cancer cells
Experiment: FDA drug screening, complete media vs cholesterol-free media with simvastatin (TABLE 2)
Type: cell-based, human
Conditions: NCI-H292 cells, FDA library drug in cholesterol-free media with simvastatin 0.04 μM

SMILES	Cholesterol-free media + simvastatin (0.04 μM)
O=C(COc1ccc(Cl)cc1)N1CCN(Cc2ccc3c(c2)OCO3)CC1 [Fipexide]	1.655
Cc1onc(-c2c(F)cccc2Cl)c1C(=O)N[C@@H]1C(=O)N2[C@@H]1SC(C)(C)[C@@H]2C(=O)O [Flucloxacillin sodium]	1.127

Same assay, conditions: NCI-H292 cells, FDA library drug in complete media

SMILES	Complete Media
O=C(COc1ccc(Cl)cc1)N1CCN(Cc2ccc3c(c2)OCO3)CC1 [Fipexide]	1.225
Cc1onc(-c2c(F)cccc2Cl)c1C(=O)N[C@@H]1C(=O)N2[C@@H]1SC(C)(C)[C@@H]2C(=O)O [Flucloxacillin sodium]	0.8297

Same assay, conditions: NCI-H292 cells, cholesterol-free media with simvastatin 0.04 μM; FDA drug library screen (TABLE 2)

SMILES	Cholesterol-free media + simvastatin (0.04 μM)
Cc1c(-c2ccccc2)oc2c(C(=O)OCCN3CCCCC3)cccc2c1=O [Flavoxate (hydrochloride)]	0.9542
CCC(=O)c1c(O)cc(O)cc1O [Flopropione]	1.103
O=c1[nH]c(=O)n([C@H]2C[C@H](O)[C@@H](CO)O2)cc1F [Floxuridine]	0.09098

Same assay, conditions: NCI-H292 cells, cholesterol-free media with simvastatin 0.04 μM; cell growth value in FDA drug screen

SMILES	Cholesterol-free media + simvastatin (0.04 μM)
CC(=O)OCC(=O)[C@@]1(O)CC[C@H]2[C@@H]3CCC4=CC(=O)CC[C@]4(C)[C@@]3(F)[C@@H](O)C[C@@]21C [Fludrocortisone acetate]	0.45

Same assay, conditions: NCI-H292 cells, complete media; FDA drug library screen (TABLE 2)

SMILES	Complete Media
Cc1c(-c2ccccc2)oc2c(C(=O)OCCN3CCCCC3)cccc2c1=O [Flavoxate (hydrochloride)]	0.8849
CCC(=O)c1c(O)cc(O)cc1O [Flopropione]	1.044
O=c1[nH]c(=O)n([C@H]2C[C@H](O)[C@@H](CO)O2)cc1F [Floxuridine]	0.02907

Same assay, conditions: NCI-H292 cells, complete media; cell growth value in FDA drug screen

SMILES	Complete Media
CC(=O)OCC(=O)[C@@]1(O)CC[C@H]2[C@@H]3CCC4=CC(=O)CC[C@]4(C)[C@@]3(F)[C@@H](O)C[C@@]21C [Fludrocortisone acetate]	0.5624

Same assay, conditions: complete media minus cholesterol-free media + simvastatin (0.04 μM); >0 enhanced anti-cancer activity, about 0 neutral, <0 antagonist

SMILES	Difference
Cc1c(-c2ccccc2)oc2c(C(=O)OCCN3CCCCC3)cccc2c1=O [Flavoxate (hydrochloride)]	−0.07
CCC(=O)c1c(O)cc(O)cc1O [Flopropione]	−0.06
O=c1[nH]c(=O)n([C@H]2C[C@H](O)[C@@H](CO)O2)cc1F [Floxuridine]	−0.06

Same assay, conditions: complete media minus cholesterol-free media + simvastatin; >0 enhanced anti-cancer activity, about 0 neutral, <0 antagonist

SMILES	Difference
CC(=O)OCC(=O)[C@@]1(O)CC[C@H]2[C@@H]3CCC4=CC(=O)CC[C@]4(C)[C@@]3(F)[C@@H](O)C[C@@]21C [Fludrocortisone acetate]	0.11

Same assay, conditions: complete media vs cholesterol-free media + simvastatin (0.04 μM); >0 enhanced anti-cancer activity, about 0 neutral, <0 antagonist

SMILES	Difference
O=C(COc1ccc(Cl)cc1)N1CCN(Cc2ccc3c(c2)OCO3)CC1 [Fipexide]	−0.43
Cc1onc(-c2c(F)cccc2Cl)c1C(=O)N[C@@H]1C(=O)N2[C@@H]1SC(C)(C)[C@@H]2C(=O)O [Flucloxacillin sodium]	−0.30
